According to ChEMBL document CHEMBL1129208, “Synthesis and activity of 2,6,9-trisubstituted purines” (Bioorg Med Chem Lett, 1997):
Several values for one entry are separate records, joined by “and”; a condition that tells them apart may be missing. Equal values may be shown once.

molecular target: Cyclin-dependent kinase 2/cyclin E (Homo sapiens, UniProt P24941); test: Inhibitory concentration against cyclin dependent kinase-2 (CDK2)/Cyclin E; format: protein-complex assay

`CCCCc1ccc(CNc2nc(N(CCO)CCO)nc3c2ncn3C(C)C)cc1` and `CC(C)n1cnc2c(NCc3ccc(Br)cc3)nc(N(CCO)CCO)nc21` are the same in IC50: 2000 nM for the first, 2000 nM for the second.

`Cn1cnc2c(NCCCCCCO)nc(Cl)nc21` and `CCCn1cnc2c(NCCCCCCO)nc(Cl)nc21` cannot be ordered by IC50: over 5000 nM for the first, over 5000 nM for the second.

Compared with `COCCN(CCOC)c1nc(NCc2ccc(-c3ccccc3)cc2)c2ncn(C(C)C)c2n1`, `CC(C)n1cnc2c(NCc3ccc(-c4ccccc4)cc3)nc(N(CCO)CCO)nc21` is 5-fold lower in IC50: 5000 nM for the first, 1000 nM for the second. The second is the more potent here.

`Cn1cnc2c(NC3CCN(Cc4ccccc4)CC3)nc(Cl)nc21` and `Cn1cnc2c(NCCc3ccccc3)nc(Cl)nc21` cannot be ordered by IC50: over 5000 nM for the first, over 5000 nM for the second.

`COc1ccc(CNc2nc(NCC(O)CO)nc3c2ncn3C(C)C)cc1` (configuration not stated) and `COc1ccc(CNc2nc(NCCO)nc3c2ncn3C(C)C)cc1` are within 1.5-fold of each other in IC50: 2000 nM for the first, 1500 nM for the second.

Going from `CC(C)n1cnc2c(NCc3ccc(C4=CC(=S)CC=C4)cc3)nc(N(CCO)CCO)nc21` to `CC(C)n1cnc2c(NCc3ccc(-c4cccs4)cc3)nc(N(CCO)CCO)nc21`, the IC50 falls from over 5000 nM to 600 nM. The second is the more potent here.

Compared with `COc1ccc(CNc2nc(NC(C)(O)CO)nc3c2ncn3C(C)C)cc1` (configuration not stated), `COc1ccc(CNc2nc(NCCN)nc3c2ncn3C(C)C)cc1` is higher in IC50: 500 nM for the first, over 5000 nM for the second. The first is the more potent here.

`N#CCCCNc1nc(Cl)nc2nc[nH]c12` and `Clc1nc(NCc2ccccc2)c2[nH]cnc2n1` cannot be ordered by IC50: over 5000 nM for the first, over 5000 nM for the second.

`CCC(C)Cn1cnc2c(NCc3ccc(OC)cc3)nc(N(CCO)CCO)nc21` (configuration not stated) and `COc1ccc(CNc2nc(N(CCO)CCO)nc3c2ncn3CC(C)C)cc1` are the same in IC50: 2000 nM for the first, 2000 nM for the second.

Going from `COc1ccc(CNc2nc(NCCc3c[nH]c4ccccc34)nc3c2ncn3C(C)C)cc1` to `COc1ccc(CNc2nc(N(CCO)Cc3ccccc3)nc3c2ncn3C(C)C)cc1`, the IC50 falls from 2000 nM to 1000 nM (2-fold). The second is the more potent here.

Compared with `CC(C)n1cnc2c(Nc3ccc(Br)cc3)nc(N(CCO)CCO)nc21`, `CC(C)n1cnc2c(Nc3ccccc3)nc(N(CCO)CCO)nc21` is 2-fold higher in IC50: 1000 nM for the first, 2000 nM for the second.

`CC(C)n1cnc2c(Nc3nc4ccccc4s3)nc(Cl)nc21` and `Cn1cnc2c(Nc3nc4ccccc4s3)nc(Cl)nc21` cannot be ordered by IC50: over 5000 nM for the first, over 5000 nM for the second.

`CN(Cc1ccc(C(=O)O)cc1)c1[nH]c(Cl)nc2ncnc1-2` and `CC(C)n1cnc2c(N(C)Cc3ccc(-c4ccccc4)cc3)nc(Cl)nc21` cannot be ordered by IC50: over 5000 nM for the first, over 5000 nM for the second.

Compared with `CC(C)n1cnc2c(NCc3ccc4c(c3)OCO4)nc(N(CCO)CCO)nc21`, `CC(C)n1cnc2c(NCCCc3ccccc3)nc(N(CCO)CCO)nc21` is higher in IC50: 800 nM for the first, over 5000 nM for the second. The first is the more potent here.

`COc1ccc(CNc2nc(C3CC[C@@H](Cc4ccccc4N)N3)nc3c2ncn3C(C)C)cc1` (some centres not stated) and `COc1ccc(CNc2nc(N(C)CC(O)c3ccccc3)nc3c2ncn3C(C)C)cc1` (configuration not stated) cannot be ordered by IC50: over 5000 nM for the first, over 5000 nM for the second.

`COc1ccc(CNc2nc(N(CCO)CCO)nc3c2ncn3Cc2ccc([N+](=O)[O-])cc2)cc1` and `COc1ccc(CNc2nc(N(CCO)CCO)nc3c2ncn3Cc2cccc([N+](=O)[O-])c2)cc1` are the same in IC50: 2000 nM for the first, 2000 nM for the second.

First: CC(C)n1cnc2c(NCc3ccc(-c4ccccc4)cc3)nc(NCC(O)CO)nc21 (configuration not stated)
Second: CC(O)Nc1nc(NCc2ccc(-c3ccccc3)cc2)c2ncn(C(C)C)c2n1 (configuration not stated)
The IC50 of the first is 5-fold lower: 600 nM for the first, 3000 nM for the second.

`COCCCNc1nc(Cl)nc2c1ncn2C` and `COCCNc1nc(Cl)nc2c1ncn2C` cannot be ordered by IC50: over 5000 nM for the first, over 5000 nM for the second.

First: COc1ccc(CNc2nc(N(Cc3cccnc3)CC(C)C#N)nc3c2ncn3C(C)C)cc1 (configuration not stated)
Second: C=CCN(CC=C)c1nc(NCc2ccc(OC)cc2)c2ncn(C(C)C)c2n1
The IC50 of the first is lower: 1000 nM for the first, over 5000 nM for the second. The first is the more potent here.

Compared with `COc1ccc(CNc2nc(N3CCCC3)nc3c2ncn3C(C)C)cc1`, `COc1ccc(CNc2nc(N3CCC(O)CC3)nc3c2ncn3C(C)C)cc1` is 2.5-fold lower in IC50: 5000 nM for the first, 2000 nM for the second.

Compared with `COc1ccc(CNc2nc(N(CCO)CCO)nc3c2ncn3CC(O)CO)cc1` (configuration not stated), `COc1ccc(CNc2nc(N(CCO)CCO)nc3c2ncn3CCO)cc1` is lower in IC50: over 5000 nM for the first, 1000 nM for the second. The second is the more potent here.

Compared with `CC(C)n1cnc2c(Nc3ccc(-c4ccccc4)cc3)nc(N(CCO)CCO)nc21`, `CC(C)n1cnc2c(Nc3cnc4ccccc4c3)nc(N(CCO)CCO)nc21` is 3.3-fold higher in IC50: 600 nM for the first, 2000 nM for the second.

`Cn1cnc2c(NC(C)(C)CO)nc(Cl)nc21` and `Cn1cnc2c(NCc3cccnc3)nc(Cl)nc21` cannot be ordered by IC50: over 5000 nM for the first, over 5000 nM for the second.

`O=C1c2ccccc2C(=O)N1CCNc1nc(Cl)nc2nc[nH]c12` and `CCn1cnc2c(NCCc3ccccc3)nc(Cl)nc21` cannot be ordered by IC50: over 5000 nM for the first, over 5000 nM for the second.

First: CC(C)n1cnc2c(N(C)C3CC3)nc(N(CCO)CCO)nc21
Second: CC(C)n1cnc2c(NC3Cc4ccccc4C3)nc(N(CCO)CCO)nc21
The IC50 of the first is lower: 2000 nM for the first, over 5000 nM for the second.

Going from `CC(C)n1cnc2c(Nc3ccc(Br)cc3)nc(Nc3ccc(Br)cc3)nc21` to `CC(C)n1cnc2c(NCc3ccc(-c4ccccc4)cc3)nc(NCc3ccco3)nc21`, the IC50 rises from 5000 nM to over 5000 nM.

Going from `COc1ccc(CNc2nc(N(CCO)CCO)nc3c2ncn3Cc2ccccc2-c2ccccc2)cc1` to `COc1ccc(CNc2nc(N(CCO)CCO)nc3c2ncn3Cc2ccc3ccccc3c2)cc1`, the IC50 falls from over 5000 nM to 5000 nM. The second is the more potent here.

Compared with `COc1ccc(CNc2nc(N3CCC(O)C3)nc3c2ncn3C(C)C)cc1` (configuration not stated), `COc1ccc(CNc2nc(N3CCCCC3CO)nc3c2ncn3C(C)C)cc1` (configuration not stated) is lower in IC50: over 5000 nM for the first, 4000 nM for the second. The second is the more potent here.

Compared with `COc1ccc(CNc2nc(N(C)CC(O)c3ccc(O)c(O)c3)nc3c2ncn3C(C)C)cc1` (configuration not stated), `COc1ccc(CNc2nc(NC(O)CN)nc3c2ncn3C(C)C)cc1` (configuration not stated) is 3-fold lower in IC50: 3000 nM for the first, 1000 nM for the second. The second is the more potent here.

Going from `COc1ccc(CNc2nc(NC3CCCCC3O)nc3c2ncn3C(C)C)cc1` (configuration not stated) to `COc1ccc(CNc2nc(NCCO)nc3c2ncn3C)cc1`, the IC50 rises from 1000 nM to 2500 nM (2.5-fold).

`CN(c1ccncc1)c1nc(Cl)nc2c1ncn2C1CCCC1` and `CC(C)Cn1cnc2c(N(C)c3cccnc3)nc(Cl)nc21` cannot be ordered by IC50: over 5000 nM for the first, over 5000 nM for the second.

First: CCCCCCCC/C=C\CCCCCCCCn1cnc2c(NCc3ccc(OC)cc3)nc(N(CCO)CCO)nc21
Second: COc1ccc(CNc2nc(N(CCO)CCO)nc3c2ncn3C2CCCC2)cc1
The IC50 of the first is 1.5-fold higher: 3000 nM for the first, 2000 nM for the second.

First: Cn1cnc2c(NCc3ccncc3)nc(Cl)nc21
Second: FC(F)(F)n1cnc2c(NCc3ccc(Cl)cc3)nc(Cl)nc21
The IC50 of the first is higher: over 5000 nM for the first, 1000 nM for the second. The second is the more potent here.

Compared with `CC(C)(C)OC(=O)Cn1cnc2c(NCc3ccc(-c4ccccc4)cc3)nc(N(CCO)CCO)nc21`, `COc1ccc(CNc2nc(Cl)nc3c2ncn3Cc2ccc(-c3ccccc3)cc2)cc1` is higher in IC50: 5000 nM for the first, over 5000 nM for the second. The first is the more potent here.

`CC(C)n1cnc2c(Nc3cccc4cccnc34)nc(N(CCO)CCO)nc21` and `Cn1cnc2c(NC3CCCC3)nc(Cl)nc21` cannot be ordered by IC50: over 5000 nM for the first, over 5000 nM for the second.

In the case of `ClCCCCNc1[nH]c(Cl)nc2ncnc1-2`, the IC50 is reported as over 5000 nM.

`COc1ccc(CNc2nc(Cl)nc3c2ncn3C)cc1` was tested, and the IC50 was 4000 nM and 700 nM.
